From US6413517B1, “Identification of broadly reactive DR restricted epitopes” (Epimmune, Inc., priority 1997, dated 2002)
Like-named read-outs stand apart in the source and are kept apart here. No end group written: not given here.

Key:
DRB1*0101 (DR1) = target: T1, DRB1*0101 (DR1) (Homo sapiens, UniProt P01903+P01911, A100R/D57E/F55L/F60I/F76Y/I96L/L162R/M171V/P40L/Q125E/R42F/V115G/Y59C); assay: biochemical; type: binding
T1 construct: Epstein-Barr virus (EBV) transformed homozygous cell lines were used as sources; endogenous in cells; host or cells: LG2 (EBV-transformed homozygous B cell line)

DRB1*0405 (DR4w15) = target: T2, DRB1*0405 (DR4w15) (Homo sapiens, UniProt P01903+P01911, A100R/A169T/D86S/F76Y/I96L/K127E/L162R/M171V/N62H/P40V/Q125Y/R42H/S133A/S149N/S66Y/V115G/V209L/W38E); assay: biochemical; type: binding
T2 construct: Epstein-Barr virus (EBV) transformed homozygous cell lines were used as sources; endogenous in cells; host or cells: KT3 (EBV-transformed homozygous B cell line)

DRB1*1501 (DR2w2b) = target: T3, DRB1*1501 (DR2w2b) (Homo sapiens, UniProt P01903+P01911); assay: biochemical; type: binding; settings: Binding Capacity (IC 50% nM) Other Alleles DR2w2b
T3 construct: expressed in transfected cells; host or cells: transfected fibroblasts L466.1

DRB1*0401 (DR4w4) = target: T4, DRB1*0401 (DR4w4) (Homo sapiens, UniProt P01903+P01911, A100K/A169T/F76Y/I96L/K127E/L162R/M171V/N62H/P40V/Q125Y/R42H/S133A/S149N/S66Y/V115G/V209L/W38E); assay: biochemical; type: binding
T4 construct: Epstein-Barr virus (EBV) transformed homozygous cell lines were used as sources; endogenous in cells; host or cells: PREISS (EBV-transformed homozygous B cell line)

DRB1*0802 (DR8w2) = target: T5, DRB1*0802 (DR8w2) (Homo sapiens, UniProt P01903+P01911, A100R/A103L/A169T/F76Y/H45Y/I96F/K41T/L162R/M171V/P40S/Q125H/Q178H/Q39Y/Q99D/R218S/R42G/S66Y/V115G/W38E); assay: biochemical; type: binding
T5 construct: Epstein-Barr virus (EBV) transformed homozygous cell lines were used as sources; endogenous in cells; host or cells: OLL (EBV-transformed homozygous B cell line)

DRB1*0701 (DR7) = target: T6, DRB1*0701 (DR7) (Homo sapiens, UniProt P01903+P01911, A100R/A102G/A103Q/D57E/D86V/E43K/F76Y/K127E/L162R/M171V/P40G/Q125H/Q99D/R33Q/R42Y/R54Q/S133A/S66F/T210M/V115G/Y107V/Y59L/Y89S); assay: biochemical; type: binding
T6 construct: Epstein-Barr virus (EBV) transformed homozygous cell lines were used as sources; endogenous in cells; host or cells: PITOUT (EBV-transformed homozygous B cell line)

DRB1*0301 (DR3w17) [1] = target: T7, DRB1*0301 (DR3w17) (Homo sapiens, UniProt P01903+P01911, A100K/A102G/A103R/A169T/F55Y/I96L/K41T/L162R/M171V/P40S/Q125H/Q178H/Q39Y/R42S/S66N/T106N/T262R/W38E/Y61H); settings: read-out: Binding Capacity (IC 50% nM) Other Alleles DR3
DRB5*0101 (DR2w2a) = target: T8, DRB5*0101 (DR2w2a) (Homo sapiens, UniProt P01903+Q30154); assay: biochemical; type: binding
T8 construct: Epstein-Barr virus (EBV) transformed homozygous cell lines were used as sources; endogenous in cells; host or cells: GM3107 (EBV-transformed homozygous B cell line)

DRB1*1201 (DR5w12) = target: T9, DRB1*1201 (DR5w12) (Homo sapiens, UniProt P01903+P01911, A100R/A169T/D57E/D86V/F55L/H45Y/K41T/L162R/M171V/P40S/Q125H/Q178H/Q39Y/Q99D/R42G/S66L/T262R/V114A/V67L/W38E/Y59H/Y61H/Y89S); assay: biochemical; type: binding
T9 construct: Epstein-Barr virus (EBV) transformed homozygous cell lines were used as sources; endogenous in cells; host or cells: Herluf (EBV-transformed homozygous B cell line)

DRB1*0901 (DR9) = target: T10, DRB1*0901 (DR9) (Homo sapiens, UniProt P01903+P01911, A100R/A103E/D57H/D86V/F55Y/F60I/F76Y/I96F/K127E/L162R/M171V/P40D/Q125H/Q99R/R33Q/R42F/S133A/S66N/T210M/V115G/W38K/Y107V/Y59G/Y89S); assay: biochemical; type: binding
T10 construct: Epstein-Barr virus (EBV) transformed homozygous cell lines were used as sources; endogenous in cells

DRB1*1101 (DR5w11) = target: T11, DRB1*1101 (DR5w11) (Homo sapiens, UniProt P01903+P01911, A100R/A169T/A87E/I96F/K41T/L162R/M171V/P40S/Q125H/Q178H/Q39Y/Q99D/R42S/S66Y/T262R/V115G/W38E); assay: biochemical; type: binding
T11 construct: Epstein-Barr virus (EBV) transformed homozygous cell lines were used as sources; endogenous in cells; host or cells: SWEIG (EBV-transformed homozygous B cell line)

DRB1*1302 (DR6w19) = target: T12, DRB1*1302 (DR6w19) (Homo sapiens, UniProt P01903+P01911, A100E/A169T/K41T/L162R/M171V/P40S/Q125H/Q178H/Q39Y/Q99D/R42S/S66N/T262R/V115G/W38E/Y61H); assay: biochemical; type: binding
T12 construct: Epstein-Barr virus (EBV) transformed homozygous cell lines were used as sources; the source of Class II molecules the EBV transformed homozygous cell line H0301; endogenous in cells; host or cells: H0301 (EBV-transformed homozygous B cell line)

DRB1*0301 (DR3w17) [2] = target: T7, DRB1*0301 (DR3w17); assay: biochemical; settings: Binding Capacity (IC50% nM) DR3
[3] = Binding Capacity (IC 50% nM) DR1,4,7 DRB1
[4] = read-out: Binding Capacity (IC 50% nM) Other Alleles DR4w15
[5] = Binding Capacity (IC 50% nM) DR1,4,7 DR4w4
[6] = Binding Capacity (IC50% nM) DR8w2
[7] = read-out: Binding Capacity (IC 50% nM) Other Alleles DR8w2
[8] = read-out: Binding Capacity (IC 50% nM) DR1,4,7 DR7
[9] = read-out: Binding Capacity (IC 50% nM) Other Alleles DR2w2a
[10] = Binding Capacity (IC50% nM) DR5w12
[11] = read-out: Binding Capacity (IC 50% nM) Other Alleles DR5w12
[12] = Binding Capacity (IC50% nM) DR9
[13] = read-out: Binding Capacity (IC 50% nM) Other Alleles DR9
[14] = read-out: Binding Capacity (IC 50% nM) Other Alleles DR5w11
[15] = Binding Capacity (IC50% nM) DR6w19
[16] = read-out: Binding Capacity (IC 50% nM) Other Alleles DR6w19

T11 sequence (P01903 26-254, other chains not shown): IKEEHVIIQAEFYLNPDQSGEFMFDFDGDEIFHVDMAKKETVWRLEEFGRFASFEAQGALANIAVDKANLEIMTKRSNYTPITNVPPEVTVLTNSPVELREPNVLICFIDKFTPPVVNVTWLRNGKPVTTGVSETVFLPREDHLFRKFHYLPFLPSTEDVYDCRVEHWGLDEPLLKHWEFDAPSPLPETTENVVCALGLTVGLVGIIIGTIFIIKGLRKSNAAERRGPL

Compound: LAAIIFLFGPPTALRS [Peptide 1136.28]
- IC50 (DRB1*0101 (DR1); Binding Capacity (IC50% nM) DR1): 0.23 nM
- IC50 (DRB1*0101 (DR1); [3]): < 1000 nM
- IC50 (DRB1*0405 (DR4w15); Binding Capacity (IC50% nM) DR4w15): 6670 nM
- IC50 (DRB1*0405 (DR4w15); [4]): > 1000 nM
- IC50 (DRB1*1501 (DR2w2b)): < 1000 nM
- IC50 (DRB1*0401 (DR4w4); [5]): < 1000 nM
- IC50 (DRB1*0401 (DR4w4); Binding Capacity (IC50% nM) DR4w4): 849 nM
- IC50 (DRB1*0802 (DR8w2); [6]): 7540 nM
- IC50 (DRB1*0802 (DR8w2); [7]): > 1000 nM
- IC50 (DRB1*0701 (DR7); Binding Capacity (IC50% nM) DR7): 3620 nM
- IC50 (DRB1*0701 (DR7); [8]): > 1000 nM
- IC50 (DRB1*0301 (DR3w17) [1]): > 1000 nM
- IC50 (DRB5*0101 (DR2w2a); Binding Capacity (IC50% nM) DR2w2a): 1480 nM
- IC50 (DRB5*0101 (DR2w2a); [9]): > 1000 nM
- IC50 (DRB1*1201 (DR5w12); [10]): 4480 nM
- IC50 (DRB1*1201 (DR5w12); [11]): > 1000 nM
- IC50 (DRB1*0901 (DR9); [12]): > 10000 nM
- IC50 (DRB1*0901 (DR9); [13]): > 1000 nM
- IC50 (DRB1*1101 (DR5w11); [14]): > 1000 nM
- IC50 (DRB1*1302 (DR6w19); [15]): 3180 nM
- IC50 (DRB1*1302 (DR6w19); [16]): > 1000 nM
- IC50 (DRB1*0301 (DR3w17) [2]): > 10000 nM

Compound: CC[C@H](C)[C@H](NC(=O)[C@H](CC(C)C)NC(=O)[C@H](CC(=O)O)NC(=O)[C@@H](NC(=O)[C@H](Cc1ccccc1)NC(=O)[C@H](Cc1ccc(O)cc1)NC(=O)[C@H](Cc1c[nH]cn1)NC(=O)[C@H](Cc1c[nH]cn1)NC(=O)[C@@H](N)[C@@H](C)O)C(C)C)C(=O)NCC(=O)NCC(=O)N[C@@H](C)C(=O)N[C@@H](CCSC)C(=O)N[C@@H](CC(C)C)C(=O)N[C@@H](CO)C(=O)N[C@@H](CC(C)C)C(=O)O [Peptide 1136.47]
- IC50 (DRB1*0101 (DR1); [3]): < 1000 nM
- IC50 (DRB1*0405 (DR4w15); [4]): > 1000 nM
- IC50 (DRB1*1501 (DR2w2b)): < 1000 nM
- IC50 (DRB1*0401 (DR4w4); [5]): < 1000 nM
- IC50 (DRB1*0802 (DR8w2); [6]): > 10000 nM
- IC50 (DRB1*0802 (DR8w2); [7]): > 1000 nM
- IC50 (DRB1*0701 (DR7); [8]): > 1000 nM
- IC50 (DRB1*0301 (DR3w17) [1]): > 1000 nM
- IC50 (DRB5*0101 (DR2w2a); Binding Capacity (IC 50% nM) Other Alleles DR2w2a): < 1000 nM
- IC50 (DRB1*1201 (DR5w12); [10]): > 10000 nM
- IC50 (DRB1*1201 (DR5w12); [11]): > 1000 nM
- IC50 (DRB1*0901 (DR9); [12]): > 10000 nM
- IC50 (DRB1*0901 (DR9); [13]): > 1000 nM
- IC50 (DRB1*1101 (DR5w11); [14]): > 1000 nM
- IC50 (DRB1*1302 (DR6w19); [15]): > 10000 nM
- IC50 (DRB1*1302 (DR6w19); [16]): > 1000 nM
- IC50 (DRB1*0301 (DR3w17) [2]): > 10000 nM

Compound: CC[C@H](C)[C@H](N)C(=O)N[C@@H](CCCCN)C(=O)N[C@@H](CC(C)C)C(=O)N1CCC[C@H]1C(=O)N[C@H](C(=O)N[C@H](C(=O)N[C@@H](CC(C)C)C(=O)N[C@@H](C)C(=O)N[C@@H](Cc1ccccc1)C(=O)N[C@@H](C)C(=O)N[C@H](C(=O)N[C@@H](CS)C(=O)N[C@@H](Cc1ccccc1)C(=O)N[C@@H](CC(C)C)C(=O)N[C@H](C(=O)N1CCC[C@H]1C(=O)O)[C@@H](C)CC)[C@@H](C)O)[C@@H](C)CC)[C@@H](C)CC [Peptide 1136.12]
- IC50 (DRB1*0101 (DR1); [3]): < 1000 nM
- IC50 (DRB1*0405 (DR4w15); [4]): > 1000 nM
- IC50 (DRB1*1501 (DR2w2b)): < 1000 nM
- IC50 (DRB1*0401 (DR4w4); [5]): < 1000 nM
- IC50 (DRB1*0802 (DR8w2); [7]): > 1000 nM
- IC50 (DRB1*0701 (DR7); [8]): > 1000 nM
- IC50 (DRB1*0301 (DR3w17) [1]): > 1000 nM
- IC50 (DRB5*0101 (DR2w2a); [9]): > 1000 nM
- IC50 (DRB1*1201 (DR5w12); [10]): > 10000 nM
- IC50 (DRB1*1201 (DR5w12); [11]): > 1000 nM
- IC50 (DRB1*0901 (DR9); [13]): > 1000 nM
- IC50 (DRB1*1101 (DR5w11); Binding Capacity (IC50% nM) DR5w11): > 10000 nM
- IC50 (DRB1*1101 (DR5w11); [14]): > 1000 nM
- IC50 (DRB1*1302 (DR6w19); Binding Capacity (IC 50% nM) Other Alleles DR6w19): < 1000 nM
- IC50 (DRB1*0301 (DR3w17) [2]): > 10000 nM
